# Where “and” joins values, the source holds several entries; their conditions need not be identical. Equal values may be shown once. Inconclusive results and toxic doses are left out. Where a SMILES comes first, the peptide text is derived from it. [ ]: non-standard residue; d: D form. The star is where a group is joined. Cbz = O=C(OCc1ccccc1)*; Nva = CCC[CH](N)C(=O)O
# Test system: B6C3F1 mice, B16 melanoma ip, median survival T/C
# Experiment: NCI In Vivo Anticancer Drug Screen. Data for tumor model B16 Melanoma (intraperitoneal) in B6C3F1 mice
# Settings: endpoint: median survival time, higher = longer survival
# How it was run: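 Values are T/C ratios: the measurement in treated animals divided by that in vehicle-treated controls, using survival or tumor size in mice carrying transplantable tumors.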
# [1] = dose: 100.0 mg/kg/injection, schedule: Q01DX009 (ip), vehicle: Klucel (hydroxypropylcellulose) (HPC)
# [2] = dose: 0.78 mg/kg/injection, schedule: Q01DX009 (ip), vehicle: saline with Tween-80
# [3] = dose: 1.56 mg/kg/injection, schedule: Q01DX009 (ip), vehicle: saline with Tween-80
# [4] = dose: 6.25 mg/kg/injection, schedule: Q01DX009 (ip), vehicle: saline with Tween-80
# [5] = dose: 12.5 mg/kg/injection, schedule: Q01DX009 (ip), vehicle: saline with Tween-80
# [6] = dose: 25.0 mg/kg/injection, schedule: Q01DX009 (ip), vehicle: saline with Tween-80
# [7] = dose: 100.0 mg/kg/injection, schedule: Q01DX009 (ip), vehicle: saline with Tween-80
# [8] = dose: 200.0 mg/kg/injection, schedule: Q01DX009 (ip), vehicle: saline with Tween-80
# [9] = dose: 50.0 mg/kg/injection, schedule: Q01DX009 (ip), vehicle: saline with Tween-80
smiles,measurement,setting,value
CN(C)c1ccc2c(Nc3ccc(NS(C)(=O)=O)cc3)c3ccc(N(C)C)cc3nc2c1,T/C,"dose: 25.0 mg/kg/injection, schedule: Q01DX009 (ip), vehicle: Klucel (hydroxypropylcellulose) (HPC)",94 % of control
same,T/C,"dose: 50.0 mg/kg/injection, schedule: Q01DX009 (ip), vehicle: Klucel (hydroxypropylcellulose) (HPC)",115 % of control and 92 % of control
same,T/C,[1],90 % of control and 104 % of control
N[C@@H](C[C@H]1CCC(=O)[C@@H]2O[C@H]12)C(=O)O,T/C,"dose: 25.0 mg/kg/injection, schedule: Q01DX009 (ip), vehicle: saline + alcohol",99 % of control
same,T/C,"dose: 50.0 mg/kg/injection, schedule: Q01DX009 (ip), vehicle: saline + alcohol",110 % of control
same,T/C,"dose: 400.0 mg/kg/injection, schedule: Q01DX009 (ip), vehicle: saline + alcohol",155 % of control
O=C1C2CC=CCC2C(=O)N1SC(Cl)(Cl)Cl (configuration not stated),T/C,[2],90 % of control and 97 % of control
same,T/C,[3],97 % of control
same,T/C,"dose: 3.12 mg/kg/injection, schedule: Q01DX009 (ip), vehicle: saline with Tween-80",89 % of control
same,T/C,[4],93 % of control
same,T/C,[5],88 % of control
same,T/C,[6],89 % of control
CCOc1ccc2c(c1)/C(=C\C=C\C1CC(C)C3CC(OCC)CCC3N1CC)CC(C)N2CC (configuration not stated),T/C,"dose: 1.25 mg/kg/injection, schedule: Q01DX009 (ip), vehicle: saline + alcohol",97 % of control
same,T/C,"dose: 2.5 mg/kg/injection, schedule: Q01DX009 (ip), vehicle: saline + alcohol",100 % of control
same,T/C,"dose: 5.0 mg/kg/injection, schedule: Q01DX009 (ip), vehicle: saline + alcohol",113 % of control
Cn1c(=O)c2c(nc(CCCCc3nc4c(c(=O)n(C)c(=O)n4C)n3C)n2C)n(C)c1=O,T/C,[2],91 % of control
same,T/C,[3],109 % of control
same,T/C,"dose: 3.13 mg/kg/injection, schedule: Q01DX009 (ip), vehicle: saline with Tween-80",93 % of control
same,T/C,[4],93 % of control
COc1cccc2c1C(=O)c1c(O)c3c(c(O)c1C2=O)C[C@@](O)(C(=O)CO)C[C@@H]3OC1CC(NC(=O)C(N)CC(C)C)C(O)C(C)O1 (some centres not stated),T/C,"dose: 6.25 mg/kg/injection, schedule: Q01DX001 (ip), vehicle: saline",192 % of control
same,T/C,"dose: 12.5 mg/kg/injection, schedule: Q01DX001 (ip), vehicle: saline",192 % of control
same,T/C,"dose: 25.0 mg/kg/injection, schedule: Q01DX001 (ip), vehicle: saline",269 % of control
same,T/C,"dose: 50.0 mg/kg/injection, schedule: Q01DX001 (ip), vehicle: saline",183 % of control
CCCC(NC(=O)OCc1ccccc1)C(=O)NC(Cc1ccccc1)C(=O)O (configuration not stated) (Cbz-[Nva]-Phe-OH; configuration not given here),T/C,[1],101 % of control
same,T/C,"dose: 200.0 mg/kg/injection, schedule: Q01DX009 (ip), vehicle: Klucel (hydroxypropylcellulose) (HPC)",104 % of control
same,T/C,"dose: 400.0 mg/kg/injection, schedule: Q01DX009 (ip), vehicle: Klucel (hydroxypropylcellulose) (HPC)",89 % of control
CN(C)CCC(O)c1c[nH]c2ccccc12 (configuration not stated),T/C,[7],98 % of control
same,T/C,[8],94 % of control
same,T/C,"dose: 400.0 mg/kg/injection, schedule: Q01DX009 (ip), vehicle: saline with Tween-80",94 % of control
COc1cccc(Sc2ccc([N+](=O)[O-])c3no[n+]([O-])c23)c1,T/C,"dose: 1.85 mg/kg/injection, schedule: Q01DX009 (ip), vehicle: saline with Tween-80",111 % of control and 93 % of control
same,T/C,"dose: 3.75 mg/kg/injection, schedule: Q01DX009 (ip), vehicle: saline with Tween-80",94 % of control and 101 % of control
same,T/C,"dose: 7.5 mg/kg/injection, schedule: Q01DX009 (ip), vehicle: saline with Tween-80",92 % of control and 99 % of control
same,T/C,"dose: 15.0 mg/kg/injection, schedule: Q01DX009 (ip), vehicle: saline with Tween-80",88 % of control and 91 % of control
same,T/C,"dose: 30.0 mg/kg/injection, schedule: Q01DX009 (ip), vehicle: saline with Tween-80",88 % of control and 89 % of control and 95 % of control
same,T/C,"dose: 60.0 mg/kg/injection, schedule: Q01DX009 (ip), vehicle: saline with Tween-80",91 % of control
O=c1[nH]c(=O)n([C@H]2CCCO2)cc1F,T/C,"dose: 12.5 mg/kg/injection, schedule: Q01DX009 (ip), vehicle: suspension in saline",98 % of control
same,T/C,"dose: 25.0 mg/kg/injection, schedule: Q01DX009 (ip), vehicle: suspension in saline",100 % of control
same,T/C,"dose: 50.0 mg/kg/injection, schedule: Q01DX009 (ip), vehicle: suspension in saline",112 % of control
same,T/C,"dose: 100.0 mg/kg/injection, schedule: Q01DX009 (ip), vehicle: suspension in saline",107 % of control
same,T/C,"dose: 200.0 mg/kg/injection, schedule: Q01DX009 (ip), vehicle: suspension in saline",120 % of control
NS(=O)(=O)OCCCCCCCOS(N)(=O)=O,T/C,[5],115 % of control
same,T/C,[9],171 % of control
CN(C)P(=O)(Oc1ccccc1)N(C)C,T/C,[5],114 % of control and 98 % of control
same,T/C,[6],100 % of control and 101 % of control
same,T/C,[9],98 % of control and 99 % of control
same,T/C,[7],110 % of control and 99 % of control
same,T/C,[8],101 % of control and 103 % of control

# Source: PubChem BioAssay AID200 (DTP/NCI, 2004)
